Laboratory results published in patent publication US10246426B2, “Triazole compounds as T-type calcium channel blockers” (IDORSIA PHARMACEUTICALS LTD, priority 2014, dated 2019).

biological target: Cav3.2 (Homo sapiens, UniProt O95180); assay: Calcium flux FLIPR assay, HEK293 cells recombinantly expressing Cav3.2; type: cell-based; conditions: Cav3.2-channel, Ca2+ entry stimulated by 10 mM CaCl2
Method: In Vitro Methods—Measurement of Calcium Channel Flux by Means of FLIPR Assays.
HEK293 cells recombinantly expressing either voltage-dependent T-type calcium channel subunit […] (Cav3.2) or voltage-dependent L-type calcium channel subunit alpha-1C (Cav1.2) are assayed for calcium flux using the calcium indicator dye Fluo-4-AM (Molecular Devices) and FLIPR technology (Fluorometric Imaging Plate Reader, Molecular Devices) (Xie X, Van Deusen A L, Vitko I, Babu D A, Davies L A, Huynh N, Cheng H, Yang N, Barrett P Q, Perez-Reyes E. Validation of high throughput screening assays against three subtypes of Ca(v)3 T-type channels using molecular and pharmacologic approaches. Assay and Drug Development Technologies 2007, 5(2), 191-203). The HEK293 cells recombinantly expressing Cav3.2 are maintained in DMEM growth medium (Life Technologies) supplemented with 10% Fetal Bovine Serum (FBS), 100 U/ml penicilin (Life Technologies), 100 μg/ml streptomycin (Life Technologies) and 1 mg/ml G418 (Life Technologies). HEK293 cells recombinantly expressing Cav1.2 are maintained in DMEM growth medium (Life technologies) supplemented with 10% FBS, 0.1 mg/ml G418 (Life Technologies), 0.1 mg/ml hygromycin (Life Technologies) and 40 ug/ml zeocin (Life Technologies).
Cells are washed once with PBS, then dissociated in 0.25% trypsin/EDTA (Life Technologies) and seeded into poly-D-lysine coated 384-well black, clear bottom plates (BD Biosciences) at a density of 30,000 cells/well. The seeded plates are incubated overnight at 37° C.
Immediately prior to performing the assay, medium is removed and cells are treated for 1 hour at 37° C. with loading buffer containing HBSS 1× (137 mM NaCl; 5.4 mM KCl; 0.25 mM Na2HPO4; 1.3 mM CaCl2; 0.4 mM MgSO04; 0.5 mM MgCl2; 0.4 mM KH2PO4, pH 7.4), 0.375 g/L NaHCO3, 20 mM Hepes, supplemented with 3 μM Fluo-4-AM and 0.15% Pluronic (Life Technologies). The cells are then washed three times with assay buffer (HBSS 1×; 0.375 g/L NaHCO3; 20 mM Hepes; 1% FBS; pH 7.4) and allowed to rest in 50 μl of wash buffer for 30 minutes.
Stock solutions of test compounds are prepared to a concentration of 10 mM in DMSO. For the Cav3.2 assay, serial dilutions of the compounds are prepared in TEAC buffer (100 mM tetraethylammonium chloride; 20 mM Hepes; 2.5 mM CaCl2; 5 mM KCl; 1 mM MgCl2; 1% FBS; pH 7.2), for the Cav1.2 assay serial dilutions are prepared in assay buffer. […] The compounds are incubated with the cells for 3 minutes and Ca2+ entry is stimulated by adding either CaCl2 to a final concentration of 10 mM (Cav3.2 assay) or by adding KCl to a final concentration of 20 mM (Cav1.2 assay). The kinetics of fluorescence increase are recorded for every well and the area under the fluorescence trace for every compound concentration is used to generate inhibition curves using non-linear regression sigmoidal concentration-response curve analysis with in-house software. IC50 values are calculated and represent the compound concentration required to inhibit 50% of the signal that is obtained in the presence of vehicle instead of test compound.

Chain of Cav3.2 (O95180 whole entry, looked up): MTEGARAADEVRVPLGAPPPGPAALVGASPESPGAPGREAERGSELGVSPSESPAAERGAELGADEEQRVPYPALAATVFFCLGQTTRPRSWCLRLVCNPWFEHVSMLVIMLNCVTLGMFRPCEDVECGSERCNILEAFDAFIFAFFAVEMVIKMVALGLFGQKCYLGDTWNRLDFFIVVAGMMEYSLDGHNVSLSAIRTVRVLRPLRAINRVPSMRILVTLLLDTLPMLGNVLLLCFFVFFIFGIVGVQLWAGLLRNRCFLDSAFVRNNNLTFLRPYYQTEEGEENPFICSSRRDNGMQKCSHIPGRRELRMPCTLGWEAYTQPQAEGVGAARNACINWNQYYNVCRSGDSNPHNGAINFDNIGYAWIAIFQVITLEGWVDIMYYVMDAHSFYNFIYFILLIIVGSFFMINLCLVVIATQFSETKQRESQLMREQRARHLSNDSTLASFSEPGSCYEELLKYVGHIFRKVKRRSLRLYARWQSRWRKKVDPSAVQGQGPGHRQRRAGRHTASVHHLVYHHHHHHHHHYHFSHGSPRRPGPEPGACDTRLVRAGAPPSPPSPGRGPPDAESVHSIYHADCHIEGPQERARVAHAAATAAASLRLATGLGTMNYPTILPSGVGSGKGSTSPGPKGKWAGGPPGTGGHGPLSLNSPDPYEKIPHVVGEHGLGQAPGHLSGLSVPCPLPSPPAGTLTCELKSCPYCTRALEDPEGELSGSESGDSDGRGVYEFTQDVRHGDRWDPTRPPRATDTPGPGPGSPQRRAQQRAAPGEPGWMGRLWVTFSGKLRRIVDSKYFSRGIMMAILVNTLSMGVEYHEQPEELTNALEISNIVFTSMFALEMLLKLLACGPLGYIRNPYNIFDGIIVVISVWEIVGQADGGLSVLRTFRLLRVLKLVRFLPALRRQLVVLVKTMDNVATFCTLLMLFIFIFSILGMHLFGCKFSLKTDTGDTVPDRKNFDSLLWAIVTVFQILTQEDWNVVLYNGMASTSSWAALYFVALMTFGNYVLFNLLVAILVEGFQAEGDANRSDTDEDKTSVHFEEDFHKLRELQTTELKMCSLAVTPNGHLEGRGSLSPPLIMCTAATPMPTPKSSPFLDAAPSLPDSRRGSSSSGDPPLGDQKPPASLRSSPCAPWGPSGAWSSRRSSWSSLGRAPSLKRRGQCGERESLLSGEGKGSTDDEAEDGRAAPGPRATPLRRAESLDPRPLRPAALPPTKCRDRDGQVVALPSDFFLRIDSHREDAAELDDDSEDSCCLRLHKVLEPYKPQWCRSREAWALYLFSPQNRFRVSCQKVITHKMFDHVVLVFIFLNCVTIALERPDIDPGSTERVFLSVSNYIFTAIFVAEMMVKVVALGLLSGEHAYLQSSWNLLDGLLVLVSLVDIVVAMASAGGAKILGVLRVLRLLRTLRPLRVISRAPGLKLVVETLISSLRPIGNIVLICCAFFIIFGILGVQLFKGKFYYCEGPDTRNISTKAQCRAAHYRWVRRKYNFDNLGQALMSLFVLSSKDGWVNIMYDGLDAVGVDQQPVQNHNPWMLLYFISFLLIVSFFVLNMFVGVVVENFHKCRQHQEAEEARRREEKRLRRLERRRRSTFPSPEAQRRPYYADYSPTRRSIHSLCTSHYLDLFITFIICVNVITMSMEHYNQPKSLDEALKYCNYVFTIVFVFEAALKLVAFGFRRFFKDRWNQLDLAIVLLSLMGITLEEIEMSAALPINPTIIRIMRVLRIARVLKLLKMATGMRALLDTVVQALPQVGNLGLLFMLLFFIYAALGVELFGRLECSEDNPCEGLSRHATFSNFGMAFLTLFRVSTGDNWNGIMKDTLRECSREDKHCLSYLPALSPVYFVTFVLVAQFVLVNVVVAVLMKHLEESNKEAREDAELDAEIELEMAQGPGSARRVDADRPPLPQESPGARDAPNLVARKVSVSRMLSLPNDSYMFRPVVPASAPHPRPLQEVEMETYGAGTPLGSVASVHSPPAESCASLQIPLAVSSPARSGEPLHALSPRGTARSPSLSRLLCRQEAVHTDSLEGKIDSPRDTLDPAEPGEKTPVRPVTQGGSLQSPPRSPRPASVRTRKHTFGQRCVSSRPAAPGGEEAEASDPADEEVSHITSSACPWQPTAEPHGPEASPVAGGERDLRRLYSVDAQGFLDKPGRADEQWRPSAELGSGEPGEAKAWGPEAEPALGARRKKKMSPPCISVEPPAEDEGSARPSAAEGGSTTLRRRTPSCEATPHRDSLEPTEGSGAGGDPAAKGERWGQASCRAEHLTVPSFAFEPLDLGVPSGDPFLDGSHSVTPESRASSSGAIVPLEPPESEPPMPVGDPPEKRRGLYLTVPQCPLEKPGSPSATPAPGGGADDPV

IC50	Compound
18 nM	CCCn1ncc2cc(CC(=O)Nc3cnn(Cc4ccc(F)c(F)c4)n3)ccc21 [Example 34, N-[2-(3,4-Difluoro-benzyl)-2H-[1,2,3]triazol-4-yl]-2-(1-propyl-1H-indazol-5-yl)-acetamide]
37 nM	O=C(Cc1ccc2cc[nH]c2c1)Nc1cnn(Cc2ccc(F)c(F)c2)n1 [Example 8, N-[2-(3,4-Difluoro-benzyl)-2H-[1,2,3]triazol-4-yl]-2-(1H-indol-6-yl)-acetamide]
300 nM	COc1cc(Cn2ncc(NC(=O)Cc3ccc(OCC4COC4)cc3)n2)ccc1F [Example 108, N-[2-(4-Fluoro-3-methoxy-benzyl)-2H-[1,2,3]triazol-4-yl]-2-[4-(oxetan-3-ylmethoxy)-phenyl]-acetamide]
17 nM	O=C(Cc1ccc(C2(F)COC2)cc1)Nc1cnn(Cc2ccc(F)c(F)c2)n1 [Example 14, N-[2-(3,4-Difluoro-benzyl)-2H-[1,2,3]triazol-4-yl]-2-[4-(3-fluoro-oxetan-3-yl)-phenyl]-acetamide]
130 nM	COc1cc(Cn2ncc(NC(=O)Cc3ccc(OCC4(F)COC4)cc3)n2)cc(F)c1F [Example 229, N-[2-(3,4-Difluoro-5-methoxy-benzyl)-2H-[1,2,3]triazol-4-yl]-2-[4-(3-fluoro-oxetan-3-ylmethoxy)-phenyl]-acetamide]
19 nM	Cn1ccc2cc(CC(=O)Nc3cnn(Cc4ccc(C#N)cc4)n3)ccc21 [Example 99, N-[2-(4-Cyano-benzyl)-2H-[1,2,3]triazol-4-yl]-2-(1-methyl-1H-indol-5-yl)-acetamide]
31 nM	CC(C)(C#N)c1ccc(CC(=O)Nc2cnn(Cc3ccc(C#N)c(F)c3)n2)cc1 [Example 157, 2-[4-(Cyano-dimethyl-methyl)-phenyl]-N-[2-(4-cyano-3-fluoro-benzyl)-2H-[1,2,3]triazol-4-yl]-acetamide]
63 nM	COc1cc(Cn2ncc(NC(=O)Cc3ccc4c(c3)c(C)cn4C)n2)ccc1F [Example 118, 2-(1,3-Dimethyl-1H-indol-5-yl)-N-[2-(4-fluoro-3-methoxy-benzyl)-2H-[1,2,3]triazol-4-yl]-acetamide]
280 nM	Cc1ccc(Cn2ncc(NC(=O)Cc3ccc4c(cnn4C)c3)n2)cc1C#N [Example 204, N-[2-(3-Cyano-4-methyl-benzyl)-2H-[1,2,3]triazol-4-yl]-2-(1-methyl-1H-indazol-5-yl)-acetamide]
13 nM	COc1c(F)cc(Cn2ncc(NC(=O)Cc3ccc(N4CCC(F)(F)C4)nc3)n2)cc1F [Example 147, N-[2-(3,5-Difluoro-4-methoxy-benzyl)-2H-[1,2,3]triazol-4-yl]-2-[6-(3,3-difluoro-pyrrolidin-1-yl)-pyridin-3-yl]-acetamide]
13 nM	O=C(Cc1ccc(N2CCC(F)(F)C2)nc1)Nc1cnn(Cc2ccc(OC(F)F)c(F)c2)n1 [Example 182, N-[2-(4-Difluoromethoxy-3-fluoro-benzyl)-2H-[1,2,3]triazol-4-yl]-2-[6-(3,3-difluoro-pyrrolidin-1-yl)-pyridin-3-yl]-acetamide]
130 nM	COc1ccc(Cn2ncc(NC(=O)Cc3ccc(N4CCC(F)(F)C4)nc3)n2)cc1C#N [Example 207, N-[2-(3-Cyano-4-methoxy-benzyl)-2H-[1,2,3]triazol-4-yl]-2-[6-(3,3-difluoro-pyrrolidin-1-yl)-pyridin-3-yl]-acetamide]
35 nM	COc1c(F)cc(Cn2ncc(NC(=O)Cc3ccc(C4(F)COC4)cc3)n2)cc1F [Example 148, N-[2-(3,5-Difluoro-4-methoxy-benzyl)-2H-[1,2,3]triazol-4-yl]-2-[4-(3-fluoro-oxetan-3-yl)-phenyl]-acetamide]
40 nM	O=C(Cc1ccc2[nH]ccc2c1)Nc1cnn(Cc2ccc(F)c(F)c2)n1 [Example 15, N-[2-(3,4-Difluoro-benzyl)-2H-[1,2,3]triazol-4-yl]-2-(1H-indol-5-yl)-acetamide]
190 nM	N#Cc1ccc(Cn2ncc(NC(=O)Cc3ccc(C4(C(F)(F)F)CC4)cc3)n2)nc1 [Example 245, N-[2-(5-Cyano-pyridin-2-ylmethyl)-2H-[1,2,3]triazol-4-yl]-2-[4-(1-trifluoromethyl-cyclopropyl)-phenyl]-acetamide]
280 nM	O=C(Cc1ccc2[nH]nc(C(F)(F)F)c2c1)Nc1cnn(Cc2ccc(F)c(F)c2)n1 [Example 39, N-[2-(3,4-Difluoro-benzyl)-2H-[1,2,3]triazol-4-yl]-2-(3-trifluoromethyl-1H-indazol-5-yl)-acetamide]
33 nM	Cc1nn(C)c2ccc(CC(=O)Nc3cnn(Cc4ccc(C#N)c(F)c4)n3)cc12 [Example 177, N-[2-(4-Cyano-3-fluoro-benzyl)-2H-[1,2,3]triazol-4-yl]-2-(1,3-dimethyl-1H-indazol-5-yl)-acetamide]
23 nM	O=C(Cc1ccc(N2CCCC2)nc1)Nc1cnn(Cc2ccc(OC(F)(F)F)c(F)c2)n1 [Example 192, N-[2-(3-Fluoro-4-trifluoromethoxy-benzyl)-2H-[1,2,3]triazol-4-yl]-2-(6-pyrrolidin-1-yl-pyridin-3-yl)-acetamide]
140 nM	COc1cc(Cn2ncc(NC(=O)Cc3ccc(N4CCCC4)nc3)n2)ccc1F [Example 155, N-[2-(4-Fluoro-3-methoxy-benzyl)-2H-[1,2,3]triazol-4-yl]-2-(6-pyrrolidin-1-yl-pyridin-3-yl)-acetamide]
120 nM	Cc1ccc(Cn2ncc(NC(=O)Cc3ccc(N4CCCC4)nc3)n2)cc1C#N [Example 213, N-[2-(3-Cyano-4-methyl-benzyl)-2H-[1,2,3]triazol-4-yl]-2-(6-pyrrolidin-1-yl-pyridin-3-yl)-acetamide]
300 nM	COc1cc(Cn2ncc(NC(=O)Cc3ccc(C(C)C)cc3)n2)cc(F)c1F [Example 222, N-[2-(3,4-Difluoro-5-methoxy-benzyl)-2H-[1,2,3]triazol-4-yl]-2-(4-isopropyl-phenyl)-acetamide]
260 nM	COc1cc(Cn2ncc(NC(=O)Cc3ccc4c(c3)c(C)nn4C)n2)cc(F)c1F [Example 210, N-[2-(3,4-Difluoro-5-methoxy-benzyl)-2H-[1,2,3]triazol-4-yl]-2-(1,3-dimethyl-1H-indazol-5-yl)-acetamide]
650 nM	Cc1ccc(Cn2ncc(NC(=O)Cc3ccc4cnn(C)c4c3)n2)cc1C#N [Example 215, N-[2-(3-Cyano-4-methyl-benzyl)-2H-[1,2,3]triazol-4-yl]-2-(1-methyl-1H-indazol-6-yl)-acetamide]
200 nM	COC1(c2ccc(CC(=O)Nc3cnn(Cc4ccc(C#N)cc4)n3)cc2)COC1 [Example 237, N-[2-(4-Cyano-benzyl)-2H-[1,2,3]triazol-4-yl]-2-[4-(3-methoxy-oxetan-3-yl)-phenyl]-acetamide]
120 nM	COc1ccc(Cn2ncc(NC(=O)Cc3ccc(C4(C)COC4)cc3)n2)cc1 [Example 60, N-[2-(4-Methoxy-benzyl)-2H-[1,2,3]triazol-4-yl]-2-[4-(3-methyl-oxetan-3-yl)-phenyl]-acetamide]
29 nM	COc1c(F)cc(Cn2ncc(NC(=O)Cc3ccc(C(C)C)cc3)n2)cc1F [Example 80, N-[2-(3,5-Difluoro-4-methoxy-benzyl)-2H-[1,2,3]triazol-4-yl]-2-(4-isopropyl-phenyl)-acetamide]
44 nM	COc1ccc(Cn2ncc(NC(=O)Cc3ccc(C(C)(C)C)cc3)n2)cc1 [Example 61, 2-(4-tert-Butyl-phenyl)-N-[2-(4-methoxy-benzyl)-2H-[1,2,3]triazol-4-yl]-acetamide]

Compound	IC50
O=C(Cc1ccc(OC2CCC2)cc1)Nc1cnn(Cc2ccc(F)c(F)c2)n1 [Example 9, 2-(4-Cyclobutoxy-phenyl)-N-[2-(3,4-difluoro-benzyl)-2H-[1,2,3]triazol-4-yl]-acetamide]	22 nM
N#Cc1ccc(Cn2ncc(NC(=O)Cc3ccc(OC4CC(F)(F)C4)cc3)n2)cc1 [Example 196, N-[2-(4-Cyano-benzyl)-2H-[1,2,3]triazol-4-yl]-2-[4-(3,3-difluoro-cyclobutoxy)-phenyl]-acetamide]	41 nM
